In patent US20240398781A1, “SPIROCYCLIC CYCLIC MODULATORS OF CHOLESTEROL BIOSYNTHESIS AND THEIR USE FOR PROMOTING REMYELINATION” (GENENTECH, INC., priority 2021, published 2024):
pEC50, pKi: −log10 of the molar value.

Columns and labels:
EpiSC-derived OPCs = experiment: In vitro phenotypic screening of OPCs (MBP staining, high-content imaging); type: cell-based, mouse; settings: Mus musculus, 72 h, percentage of MBP+ oligodendrocytes, 3 days, 0.5 nM to 1000 nM; read-out: OPC EC50
Summary of the method: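 EpiSC-derived mouse OPCs seeded at 150,000/cm^2 on laminin in N2B27 without growth factors, treated 3 days at 37° C. with compound (8 points, 1000 nM to 0.5 nM). Fixed cells stained for MBP and DAPI and imaged; percentage of MBP+ oligodendrocytes fitted by Hill equation for EC50.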

human EBP = human EBP (Homo sapiens (Human), UniProt Q15125); experiment: Competition binding assay (SPA, [3H]-Ifenprodil) to determine compound affinity to EBP; settings: [3H]-Ifenprodil 10 nM, HEK293 membrane overexpressing human EBP, Ki=IC50/(1+[L]/Kd); read-out: hEBP SPA Ki
Summary of the method: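 Membranes from HEK293 cells overexpressing human EBP, on SPA beads (0.3 mg beads, 5 µg membrane/well) in Tris/MgCl2/EDTA buffer pH 7.5 with 0.01% BSA and 0.1% DMSO, competed against [3H]-ifenprodil for 3 h to equilibrium. Compounds were tested at 1 µM single dose or 0.06 nM–5 µM; IC50 came from nonlinear fit, and Ki=IC50/(1+[L]/Kd).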

Sequence of human EBP (Q15125 whole entry): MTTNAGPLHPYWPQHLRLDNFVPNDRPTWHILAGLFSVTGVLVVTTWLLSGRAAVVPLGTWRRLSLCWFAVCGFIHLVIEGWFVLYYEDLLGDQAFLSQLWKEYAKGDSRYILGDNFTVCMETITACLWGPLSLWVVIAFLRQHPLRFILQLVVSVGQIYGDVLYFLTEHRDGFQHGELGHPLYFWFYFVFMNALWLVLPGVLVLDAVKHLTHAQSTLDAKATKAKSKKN

Row | SMILES | pEC50 (EpiSC-derived OPCs) | pKi (human EBP)
1 | O=S1(=O)CC2(CCN(C3CCN(c4ccc(C(F)(F)F)cn4)CC3)C2)C1 [Compound 6, 6-(1-(5-(trifluoromethyl)pyridin-2-yl)piperidin-4-yl)-2-thia-6-azaspiro[3.4]octane 2,2-dioxide] | 7.41 | 7.43
2 | Cc1cc(C(F)(F)F)cnc1N1CCC(N2CCC3(C2)CS(=O)(=O)C3)CC1 [Compound 7, 6-(1-(3-methyl-5-(trifluoromethyl)pyridin-2-yl)piperidin-4-yl)-2-thia-6-azaspiro[3.4]octane 2,2-dioxide] | 7.68 | 8.00
3 | CC(C)n1nc(C(F)(F)F)cc1[C@H]1CC[C@H](N2CCC3(C2)CS(=O)(=O)C3)CC1 [Compound 8A, 6-((1r,4r)-4-(1-isopropyl-3-(trifluoromethyl)-1H-pyrazol-5-yl)cyclohexyl)-2-thia-6-azaspiro[3.4]octane 2,2-dioxide] | 7.15 | 7.80
4 | CC(C)n1nc(C(F)(F)F)cc1[C@H]1CC[C@@H](N2CCC3(C2)CS(=O)(=O)C3)CC1 [Compound 8B, 6-((1s,4s)-4-(1-isopropyl-3-(trifluoromethyl)-1H-pyrazol-5-yl)cyclohexyl)-2-thia-6-azaspiro[3.4]octane 2,2-dioxide] | 6.62 | 7.68
5 | O=S1(=O)CC2(CCN([C@H]3CC[C@H](c4cc(C(F)(F)F)nn4C4CC4)CC3)C2)C1 [Compound 12A, 6-((1r,4r)-4-(1-Cyclopropyl-3-(trifluoromethyl)-1H-pyrazol-5-yl)cyclohexyl)-2-thia-6-azaspiro[3.4]octane 2,2-dioxide] | 7.43 | 7.55
6 | O=S1(=O)CC2(CCN([C@H]3CC[C@@H](c4cc(C(F)(F)F)nn4C4CC4)CC3)C2)C1 [Compound 12B, 6-((1s,4s)-4-(1-Cyclopropyl-3-(trifluoromethyl)-1H-pyrazol-5-yl)cyclohexyl)-2-thia-6-azaspiro[3.4]octane 2,2-dioxide] | 6.62 | 7.54
7 | O=S1(=O)CC2(CCN([C@H]3CC[C@H](c4ccc(C(F)(F)F)nc4)CC3)C2)C1 [Compound 14A, 6-((1r,4r)-4-(6-(Trifluoromethyl)pyridin-3-yl)cyclohexyl)-2-thia-6-azaspiro[3.4]octane 2,2-dioxide] | 7.80 | 7.46
8 | O=S1(=O)CC2(CCN([C@H]3CC[C@@H](c4ccc(C(F)(F)F)nc4)CC3)C2)C1 [Compound 14B, 6-((1s,4s)-4-(6-(Trifluoromethyl)pyridin-3-yl)cyclohexyl)-2-thia-6-azaspiro[3.4]octane 2,2-dioxide] | 6.62 | 7.52

Next, values leading:

Row | pEC50 (EpiSC-derived OPCs) | pKi (human EBP) | SMILES
9 | 7.36 | 7.60 | CCn1nc(C(F)(F)F)cc1[C@H]1CC[C@H](N2CCC3(C2)CS(=O)(=O)C3)CC1 [Compound 15, 6-((1r,4r)-4-(1-Ethyl-3-(trifluoromethyl)-1H-pyrazol-5-yl)cyclohexyl)-2-thia-6-azaspiro[3.4]octane 2,2-dioxide]
10 | 7.39 | 7.44 | CCn1nc([C@H]2CC[C@H](N3CCC4(C3)CS(=O)(=O)C4)CC2)cc1C(F)(F)F [Compound 16, 6-((1r,4r)-4-(1-Ethyl-5-(trifluoromethyl)-1H-pyrazol-3-yl)cyclohexyl)-2-thia-6-azaspiro[3.4]octane 2,2-dioxide]
11 | 7.43 | 7.64 | Cc1cc(C(F)(F)F)ncc1[C@H]1CC[C@@H](N2CCC3(C2)CS(=O)(=O)C3)CC1 [Compound 21A, 6-((1s,4s)-4-(4-Methyl-6-(trifluoromethyl)pyridin-3-yl)cyclohexyl)-2-thia-6-azaspiro[3.4]octane 2,2-dioxide]
12 | 6.92 | 7.32 | Cc1cc(C(F)(F)F)ncc1[C@H]1CC[C@H](N2CCC3(C2)CS(=O)(=O)C3)CC1 [Compound 21B, 6-((1r,4r)-4-(4-Methyl-6-(trifluoromethyl)pyridin-3-yl)cyclohexyl)-2-thia-6-azaspiro[3.4]octane 2,2-dioxide]
